The record followed here is patent US7994187B2, “HIV inhibiting 3,4-dihydro-imidazo[4,5-B]pyridin-5-ones” (Tibotec Pharmaceuticals Ltd., priority 2006, dated 2011).

pEC50: −log10 of the molar value.

A short description of data set [1]: Cytotoxicity in mock-infected MT4 CMV-EGFP cells (GFP fluorescence). Type of data set: cell-based. As to conditions: human, 50% cytotoxic concentration as negative log. An excerpt:
Analogously, MT4 cells are engineered with GFP and the constitutional cytomegalovirus (CMV) promotor. This cell line is designated MT4 CMV-EGFP, and can be used for the in vitro evaluation of cytotoxicity of investigational compounds. In this cell line, GFP levels are comparably to those of infected MT4 LTR-EGFP cells. Cytotoxic investigational compounds reduce GFP levels of mock-infected MT4 CMV-EGFP cells.
(§1) Effective concentration values such as 50% effective concentration (EC50) can be determined and are usually expressed in μM. An EC50 value is defined as the concentration of test compound that reduces the fluorescence of HIV-infected cells by 50%. The 50% cytotoxic concentration (CC50 in μM) is defined as the concentration of test compound that reduces fluorescence of the mock-infected cells by 50%. The ratio of CC50 to EC50 is defined as the selectivity index (SI) and is an indication of the selectivity of the anti-HIV activity of the inhibitor. The ultimate monitoring of HIV-1 infection and cytotoxicity is done using a scanning microscope. Image analysis allows very sensitive detection of viral infection. Measurements are done before cell necrosis, which usually takes place about five days after infection, in particular measurements are performed three days after infection.

The test system of data set [2] is wild-type HIV-IIIB strain. The data set is described as follows: Anti-viral activity in cellular assay, MT4 LTR-EGFP cells (GFP fluorescence). As to conditions: Human immunodeficiency virus 1, 72 h, pEC50 = -log10(EC50), measured three days after infection. The class given is cell-based, HIV-1. On the procedure: The compounds of the present invention were tested for anti-viral activity in a cellular assay, which was performed according to the following procedure.
The human T-cell line MT4 is engineered with Green Fluorescent Protein (GFP) and an HIV-specific promoter, HIV-1 long terminal repeat (LTR). This cell line is designated MT4 LTR-EGFP, and can be used for the in vitro evaluation of anti-HIV activity of investigational compounds. In HIV-1 infected cells, the Tat protein is produced which upregulates the LTR promotor and finally leads to stimulation of the GFP reporter production, allowing to measure ongoing HIV-infection fluorometrically.
as §1
The following Table 6 lists pEC50 values against wild-type HIV-IIIB strain as well as pEC50 values for a selected number of compounds of the invention. A pEC50 value corresponds to −log10(EC50). Listed are compounds having a pEC50 value of at least 5.00.

Usually CC50 stands for the concentration giving 50% cytotoxicity. Low values mean greater toxicity to the cells, high ones lower toxicity to the cells. By pEC50 is commonly meant the negative decadic logarithm of the EC50, by convention in mol/L. The compound `O=c1c2ccccc2c2nc3ccccn3c2n1-c1ccc([N+](=O)[O-])cc1` [Compound 1, 6-(4-nitrophenyl)-pyrido[2′,1′:2,3]imidazo-[4,5-c]isoquinolin-5(6H)-one] gave a CC50 at 3 days in data set [1] of more than 32400 nM. In data set [2], this compound had a pEC50 of 6.45.
The corresponding values for `Nc1ccc2nc3c4ccccc4c(=O)n(-c4ccc([N+](=O)[O-])cc4)c3n2n1` [Compound 129, 9-amino-6-(4-nitrophenyl)-pyridazo-[3′,2′:2,3]imidazo[4,5-c]isoquinolin-5(6H)-one] are more than 32400 nM and 6.78.
In the same order, the values of `O=c1c2ccccc2c2nc3ccc(OCCO)cn3c2n1-c1ccc([N+](=O)[O-])cc1` [Compound 74, 9-[2-hydroxy-ethoxy]-6-(4-nitrophenyl)-pyrido[2′,1′:2,3]imidazo[4,5-c]isoquinolin-5(6H)-one] are more than 32400 nM and 6.06.
The corresponding values for `O=c1c2ccccc2c2nc3ccc(NCCCO)nn3c2n1-c1ccc([N+](=O)[O-])cc1` [Compound 118] are more than 32400 nM and 6.19.
As to `O=c1c2ccccc2c2nc3ccc(NCCN4CCCC4)nn3c2n1-c1ccc([N+](=O)[O-])cc1` [Compound 115], in data set [1], the CC50 at 3 days was 832 nM. Besides, the pEC50 in data set [2] was 6.04.
In the case of `O=C(Nc1ccc2nc3c4ccccc4c(=O)n(-c4ccc(Cl)nc4)c3n2c1)C(F)(F)F` [Compound 61, N-[6-(6-chloro-pyridin-3-yl)-5,6-dihydro-5-oxo-pyrido[2′,1′:2,3]imidazo[4,5-c]isoquinolin-9-yl]-2,2,2-trifluoro-acetamide], the CC50 at 3 days in data set [1] was more than 32400 nM. The same compound showed a negative logarithm of the EC50 (pEC50) in data set [2] of 5.68.
In the same order, the values of `O=c1c2ccccc2c2nc3cc(CO)ccn3c2n1-c1ccc([N+](=O)[O-])cc1` [Compound 9] are more than 32400 nM and 6.14.
In data set [1], `O=c1c2ccccc2c2nc3ccc(NCCO)nn3c2n1-c1ccc(Cl)nc1` [Compound 126] had a CC50 at 3 days of more than 32400 nM. This compound also had a pEC50 in data set [2] of 5.67.
The corresponding values for `O=c1c2ccccc2c2nc3sccn3c2n1-c1ccc([N+](=O)[O-])cc1` [Compound 98, 6-(4-nitrophenyl)-thiazolo[2′,3′:2,3]imidazo[4,5-c]isoquinolin-5(6H)-one] are more than 32400 nM and 6.01.
`CN(C)CCN(C)c1ccc2nc3c4ccccc4c(=O)n(-c4ccc([N+](=O)[O-])cc4)c3n2c1` [Compound 68]: the CC50 at 3 days in data set [1] was 16600 nM. Besides, in data set [2], the pEC50 was 5.91.
In the same order, the values of `CN(C)/C=N/c1ccc2nc3c4ccccc4c(=O)n(-c4ccc(Cl)nc4)c3n2c1` [Compound 84, 6-(6-chloro-pyridin-3-yl)-9-[[(dimethylamino)-methylene]amino]-pyrido[2′,1′:2,3]imidazo[4,5-c]isoquinolin-5(6H)-one] are 16600 nM and 5.21.
`O=c1c2ccccc2c2nc3ccc(OP(=O)(O)O)cn3c2n1-c1ccc([N+](=O)[O-])cc1` [Compound 76, phosphoric acid 5,6-dihydro-6-(4-nitrophenyl)-5-oxo-pyrido[2′,1′:2,3]imidazo[4,5-c]isoquinolin-9-yl ester] showed a CC50 at 3 days in data set [1] of more than 32400 nM. The same compound showed a pEC50 in data set [2] of 7.13.
In the same order, the values of `Cc1ccc(-n2c(=O)c3ccccc3c3nc4ccccn4c32)cn1` [Compound 19] are more than 32400 nM and 5.05.
The corresponding values for `O=c1c2ccccc2c2nc3ccccn3c2n1-c1ccc(Cl)nc1` [Compound 18] are more than 32400 nM and 5.09.
In the same order, the values of `O=c1c2ccccc2c2nc3ccc(NCc4ccccc4)nn3c2n1-c1ccc([N+](=O)[O-])cc1` [Compound 125] are more than 20000 nM and 5.28.
In turn, `O=c1c2ccccc2c2nc3ccc(NCCNCCO)nn3c2n1-c1ccc([N+](=O)[O-])cc1` [Compound 130] showed a CC50 at 3 days in data set [1] of 3550 nM. In addition, the pEC50 in data set [2] was 6.66.
